Measurements taken from EP4050002A1, “ANTI-PROLIFERATIVE AGENTS” (First Health Pharmaceuticals B.V., priority 2021, dated 2022).

Key:
[1] = test system: Triple negative breast cancer (cell line MDA-MB-231); test: Subcutaneous xenograft mice model; type: in vivo, nude FOXN1nu/nu mice; conditions: MDA-MB-231 xenograft, 45 mg/Kg I.P. every Monday, Wednesday and Friday for 5 weeks
Protocol: (§1) Human cancer cell lines were inoculated subcutaneously in nude FOXN1^nu/nu mice (Envigo spa) in both flanks.
(§2) The number of cells inoculated varied between different cell lines: • A549 and A549 Red-FLuc: 5 x 10^6 in medium:matrigel (1:1 v/v) • MDAMB231: 2.8 x 10^6 in medium:matrigel (1:2 v/v)
(§3) When tumors reach the appropriate volume for each cell line, the compounds were administered I.P. every 48 hours, 3 times a week every Monday, Wednesday and Friday for 5 weeks, at a dose selected from the PK study, as follows: • vehicle: 10% DMSO, 5% TWEEN 80 and WFI (85%) • treatment group dose: 45 mg/kg • control group: vehicle only • dose concentration: 12 mg/ml in 10% DMSO, 5% TWEEN 80 and WFI (85%) • volume: 5 ml/kg
(§4) Tumor volume was evaluated twice a week with caliper and calculated with the standard formula (Length ^∗ Height ^∗ Height)/2. Mice were weighed twice a week. Tumor growth is calculated with respect to the first day of treatment (day 0) as ratio between the volume at each day of measurement and day 0.

[2] = test system: Non-small cell lung cancer engineered with a luciferase reporter (cell line A549 Red-FLuc); test: Subcutaneous xenograft mice model; type: in vivo, nude FOXN1nu/nu mice; conditions: 45 mg/Kg I.P. every Monday, Wednesday and Friday for 5 weeks
Protocol: as §1, §2, §3, §4

[3] = test system: Non-small cell lung cancer (cell line A549); test: Subcutaneous xenograft mice model; type: in vivo, nude FOXN1nu/nu mice; conditions: 45 mg/Kg I.P. every Monday, Wednesday and Friday for 5 weeks
Protocol: as §1, §2, §3, §4

hERG channels = target: T1, hERG channels (Homo sapiens, UniProt Q12809); test: hERG inhibition (whole cell patch clamp, HEK293); type: cell-based; conditions: 300nM to 30µM, HEK293 cells
T1 construct: host or cells: HEK293
Protocol: HEK293 cells (Eurofins Discover X, Catalogue number CYL3039) stably expressing hERG channels (human ether-a-go-go-related gene potassium channels were plated onto 12 mm coverslips, 12 to 18 h before performing the assay. Cells with coverslips were placed in recording chamber of molecular devices profiled with extracellular solution. Glass capillary with a tip resistance from […] was back filled with intracellular solution. Giga seal was attained using a sequence of positive and negative pressure.
Whole cell configuration was attained using a gentle suction. Cell capacitance and series resistance compensation was done using software controls provided in multi clamp 700B commander. The cells are maintained at a holding potential of -80mV; hERG currents are activated by cell depolarization to +20mV for 2 seconds followed by a 3 second repolarization to -60mV (frequency: 0.05Hz).
Electrical signals were filtered at 2 KHz and digitized at 5 KHz. Series resistance compensation was typically 60% to 70% such that voltage errors were less than 5 mV. […] Data were acquired using Clampex acquisition software. […]
Amplitude of the tail current upon repolarization to -60mV (pA) and inhibition of the hERG tail current with respect to untreated cells (%) are measured. […]

[4] = Systemic and organ toxicity; type: in vivo, mice
Protocol: […] For blood withdrawal, mice were anesthetized using gaseous anesthesia and 0.2 to 0.3 ml of blood samples were collected in Li-Heparin containing tubes at the time points above indicated, stored on ice, centrifuged within 15 minutes to separate plasma at 1540 ref (5000 rpm) at 4°C for 10 minutes; plasma was separated and transferred to new tubes.
At study closure, animals were sacrificed and tumor and tissues removed for further studies of distribution and morphology. Mice from the efficacy study were anesthetized using gaseous anesthesia and blood samples collected in Li-Heparin containing tubes by intracardiac puncture, stored on ice, centrifuged within 15 minutes to separate plasma at 1540 ref (5000 rpm), at 4°C for 10 minutes; plasma was separated and transferred to new tubes. After blood collection, tissues for bio-analyses were separated, washed in PBS, dried and frozen at -80±10°C until homogenization.
Tissues for histological analyses were washed in PBS and paraffin embedded soon after separation. Dehydration and Haematoxylin and Eosin (H&E) staining was performed on 5 µm thick sections followed by microscopic examination with Nikon Ni-e microscope (Nikon Instruments, Calenzano, Italy).

[5] = Tissue distribution after single I.P. administration; type: in vivo, male Swiss Albino Mice
Protocol: The pharmacokinetic study was performed in male Swiss albino mice from Hylasco Biotechnology Pvt. Ltd. (A Charles River technology Licensee). The tissue distribution study was performed in male Swiss albino mice and in male FOXN1^nu/nu nude mice (Envigo spa). The efficacy study was performed in male FOXN1^nu/nu nude mice.
Single intraperitoneal administration studies were done as follows: • 1. Compound 5 • dose 1: 45 mg/kg • dose concentration: […] in 10% DMSO, 5% TWEEN 80 and WFI (85%) • volume: 5 ml/kg • blood withdrawal time points: 0.25, 0.5, 1, 2, 4, 6, 8, 24 hours post administration • brain, liver and lungs collected at 4, 8 and 24 hours • 2. Compound 5 • dose 2: 10 mg/kg • dose concentration: 2 mg/ml in 10% DMSO, 10% Solutol and WFI (90%). • volume: 5 ml/kg • blood withdrawal time points: 0.25, 0.5, 1, 2, 4, 6, 8, 24 hours post administration
Selected organs were collected at 4, 8 and 24 hours for drug distribution studies: mice were anesthetized and intra-cardiac whole body perfusion was performed using chilled saline. Separated tissues were immediately washed, dried, weighed and frozen at -80±10°C until homogenization. The levels of compound in the tissues and in plasma were quantified by LC-MS/MS, using as instrument Q-TRAP 500, with a column Phenomenex, KINETEX 5µ EVO C18 50 mm X 4.5 mm (Phenomenex). The mobile phase employed was composed as follows: aqueous reservoir, 10 mM Ammonium Acetate with 0.1% Formic acid in MilliQ water; organic reservoir, Acetonitrile:Methanol (50:50, v/v); flow rate 1 ml/min; injection volume 10µl; rinsing solution, Acetonitrile:Methanol:Water (20:60:20, v/v).
Distribution to tissues is expressed as ratio between the compound level in tissues (ng compounds/ mg tissue) divided by the compound levels in blood (ng/ml), considering 1 ml of blood equal to […].

[6] = 4 hours after single administration I.P. 45 mg/Kg
[7] = 8 hours after single administration I.P. 45 mg/Kg
[8] = 24 hours after single administration I.P. 45 mg/Kg

T1 sequence (Q12809 whole entry): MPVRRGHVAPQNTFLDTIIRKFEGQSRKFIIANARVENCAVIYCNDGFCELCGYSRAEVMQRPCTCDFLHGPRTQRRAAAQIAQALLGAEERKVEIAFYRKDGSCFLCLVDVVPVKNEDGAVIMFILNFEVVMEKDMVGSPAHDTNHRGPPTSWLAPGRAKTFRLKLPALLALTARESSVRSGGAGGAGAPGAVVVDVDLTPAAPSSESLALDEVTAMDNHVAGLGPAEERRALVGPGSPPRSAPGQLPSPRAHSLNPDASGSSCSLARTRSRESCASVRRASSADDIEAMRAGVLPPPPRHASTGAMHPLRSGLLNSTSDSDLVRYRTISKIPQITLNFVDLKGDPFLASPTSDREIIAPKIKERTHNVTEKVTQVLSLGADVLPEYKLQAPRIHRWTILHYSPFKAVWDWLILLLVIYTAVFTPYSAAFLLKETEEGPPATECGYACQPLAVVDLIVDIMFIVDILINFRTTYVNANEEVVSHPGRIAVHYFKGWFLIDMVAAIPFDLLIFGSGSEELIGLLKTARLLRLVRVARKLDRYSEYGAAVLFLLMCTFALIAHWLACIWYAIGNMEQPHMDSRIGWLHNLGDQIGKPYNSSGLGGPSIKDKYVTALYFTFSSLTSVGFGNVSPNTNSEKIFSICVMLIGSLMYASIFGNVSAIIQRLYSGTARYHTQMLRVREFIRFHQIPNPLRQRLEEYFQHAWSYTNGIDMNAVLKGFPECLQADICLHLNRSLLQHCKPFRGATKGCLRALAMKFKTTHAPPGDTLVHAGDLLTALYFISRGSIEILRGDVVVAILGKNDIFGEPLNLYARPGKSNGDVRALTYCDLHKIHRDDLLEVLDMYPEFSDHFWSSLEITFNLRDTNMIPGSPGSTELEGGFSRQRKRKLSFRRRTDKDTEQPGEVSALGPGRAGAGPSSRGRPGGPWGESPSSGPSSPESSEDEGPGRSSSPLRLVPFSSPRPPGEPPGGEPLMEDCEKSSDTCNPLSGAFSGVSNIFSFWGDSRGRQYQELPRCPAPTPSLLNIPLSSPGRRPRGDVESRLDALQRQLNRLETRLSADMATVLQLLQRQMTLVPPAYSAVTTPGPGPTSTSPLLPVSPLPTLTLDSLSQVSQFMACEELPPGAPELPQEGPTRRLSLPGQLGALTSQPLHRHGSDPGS

Structure (SMILES): CCCCc1cn(-c2ccc(-c3nnc(-c4ccccc4C(F)(F)F)o3)cc2)nn1 [Compound 5]
- tumor growth [1]: counteract tumor growth
- tumor growth [2]: counteract tumor growth
- tumor growth [3]: counteract tumor growth
- effect on the conductance of the hERG channel (hERG channels): No effect on the conductance of the hERG channel
- treatment related morphological changes in brain, liver, lung, spleen and kidney ([4]; 6 weeks of repeated treatment, I.P. 45mg/Kg every 48 hours): No treatment related morphological changes
- systemic toxicities or altered behavior ([4]; I.P. 10 mg/kg single administration, mice observed for 24 hours): no toxicities
- systemic toxicities or altered behavior ([4]; I.P. 45 mg/kg double administration, mice observed for 48 hours): no toxicities
- systemic toxicities or altered behavior ([4]; I.P. 45 mg/kg every 48 hours, 6 weeks, including 1 week follow up): no toxicities
- systemic toxicities or altered behavior ([4]; I.P. 45 mg/kg single administration, mice observed for 24 hours): no toxicities
- systemic toxicities or altered behavior ([4]; I.T. 0.08 mg/kg single administration, mice observed for 24 hours): no toxicities
- systemic toxicities or altered behavior ([4]; I.V. 1 mg/kg single administration, mice observed for 24 hours): no toxicities
- systemic toxicities or altered behavior ([4]; P.O. 45 mg/kg single administration, mice observed for 24 hours): no toxicities
- Liver to plasma [5, 6]: 11.2
- Plasma [5, 6]: 2171 ng/mL
- Liver to plasma [5, 7]: 9.2
- Plasma [5, 7]: 775 ng/mL
- Liver to plasma [5, 8]: 9.2
- Plasma [5, 8]: 273 ng/mL
- Kp at 4 h ([5]; mouse, brain, ip, 4 hours after single administration I.P. 45 mg/Kg, read-out: Brain to plasma): 2.4
- Kp at 8 h ([5]; mouse, brain, ip, 8 hours after single administration I.P. 45 mg/Kg, read-out: Brain to plasma): 2.1
- Kp at 24 h ([5]; mouse, brain, ip, 24 hours after single administration I.P. 45 mg/Kg, read-out: Brain to plasma): 1.75
